Assay results taken from patent US11613525B2 (CTXT PTY LIMITED, priority 2018, dated 2023).
Structures can show the parent of a compound that is named as a salt. Where two headings read alike, the source gives them in different places.

What was measured:
huSTING (HAQ) = huSTING (HAQ) (Homo sapiens (Human), UniProt Q86WV6, G230A/H232R/R293Q/R71H); experiment: THP-1 reporter cell line assay, THP-1 STING Lucia ISG cells; type: cell-based; conditions: THP-1 STING Lucia ISG cells, read-out: Cellular EC50 huSTING (HAQ)
Chain of huSTING (HAQ) (Q86WV6 whole entry R71H/G230A/H232R/R293Q): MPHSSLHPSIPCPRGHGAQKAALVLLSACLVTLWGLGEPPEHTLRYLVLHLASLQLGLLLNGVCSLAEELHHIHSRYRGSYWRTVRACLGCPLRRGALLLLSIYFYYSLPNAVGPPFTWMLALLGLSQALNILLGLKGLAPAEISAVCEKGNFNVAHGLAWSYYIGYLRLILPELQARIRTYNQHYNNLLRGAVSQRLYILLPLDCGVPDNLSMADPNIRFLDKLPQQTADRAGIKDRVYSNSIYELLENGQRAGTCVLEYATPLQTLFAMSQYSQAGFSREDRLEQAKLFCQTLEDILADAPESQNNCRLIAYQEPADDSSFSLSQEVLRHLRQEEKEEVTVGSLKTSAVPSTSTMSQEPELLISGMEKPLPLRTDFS

human STING (HAQ) = human STING (HAQ) (Homo sapiens, UniProt Q86WV6, G230A/H232R/R293Q); experiment: biochemical; type: binding; conditions: for ΔTm at 100 µM: read-out: DSF huSTING (HAQ) ΔTm (° C.)
Chain of human STING (HAQ) (Q86WV6 whole entry G230A/H232R/R293Q, looked up): as the sequence (Q86WV6 whole entry R71H/G230A/H232R/R293Q) above, with H71R counted along it
Experimental: (§1) DSF monitors thermal unfolding of protein in the presence of a fluorescent dye and is typically performed using a real-time PCR instrument. The temperature at which a protein unfolds is measured by an increase in the fluorescence of a dye with affinity for hydrophobic parts of the protein that are gradually exposed during unfolding. The fluorescence of the dye is quenched in aqueous environments, but when the dye associates with hydrophobic sites on the unfolded protein, its fluorescence increases. The fluorescence intensity is plotted as a function of the temperature, generating a sigmoidal curve that can be described by a two-state transition. The inflection point of the transition curve (Tm) is calculated using simple equations such as that of Boltzman.
(§2) Sealed plates were then placed into a Bio-Rad CFX96/C1000 thermocycler and FRET scanning mode (λ^excitation of 490 nm and reads at λ^emission of 570 nm) was used to measure fluorescence intensity. […] The melting point (Tm) obtained for STING protein alone was subtracted from Tm obtained for protein incubated with ligand to generate ΔTm values listed in the table below.
(§3) These additional compounds were tested as described above, however the protein concentration was 2 μM.

huSTING (WT) [1] = molecular target: T1, huSTING (WT) (Homo sapiens (Human), UniProt Q86WV6, H232R); experiment: THP-1 reporter cell line assay, THP-1-Dual KI-hSTING-R232 cells; type: cell-based; conditions: read-out: Cellular EC50 huSTING (WT)
Target sequence in this assay (Q86WV6 whole entry H232R): as the sequence (Q86WV6 whole entry R71H/G230A/H232R/R293Q) above, with H71R, A230G, Q293R counted along it

huSTING (WT) [2] = molecular target: T1, huSTING (WT); experiment: Differential scanning fluorimetry (DSF), huSTING (WT); type: binding; conditions: for DSF huSTING (WT) ΔTm (° C.): compound 100 μM, protein concentration 2 μM
Experimental: as §1, §2, §3
Target sequence in this assay (Q86WV6 other isoform, or with tags, fused parts or gaps, stated change not applied): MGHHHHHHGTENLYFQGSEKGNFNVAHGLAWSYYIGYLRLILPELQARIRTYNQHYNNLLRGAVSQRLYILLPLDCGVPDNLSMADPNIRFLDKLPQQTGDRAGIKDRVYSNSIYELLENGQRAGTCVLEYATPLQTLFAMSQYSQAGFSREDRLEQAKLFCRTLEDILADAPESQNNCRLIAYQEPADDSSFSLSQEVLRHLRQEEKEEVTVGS

[3] = modified method, top concentration 40 μM, pin tool, EnVision

`CCOC(=O)c1sc2cccc(F)c2c1COc1c(F)cc(C(N)=O)cc1F` [Example 2, Ethyl 3-((4-carbamoyl-2,6-difluorophenoxy)methyl)-4-fluorobenzo[b]thiophene-2-carboxylate] was tested, and the EC50 (huSTING (HAQ); 24 h, top concentration 50 μM) was 2070 nM, the ΔTm at 100 µM (human STING (HAQ)) was 1.44 °C and the EC50 (huSTING (WT) [1]) was greater than 50000 nM.
Compound `CC(C)OC(=O)c1sc2cccc(F)c2c1COc1ccc(C(N)=O)cc1` [Example 4, Isopropyl 3-((4-carbamoylphenoxy)methyl)-4-fluorobenzo[b]thiophene-2-carboxylate] has an EC50 (huSTING (HAQ); 24 h, top concentration 50 μM) of 2580 nM, a ΔTm at 100 µM (human STING (HAQ)) of 0.13 °C and an EC50 (huSTING (WT) [1]) greater than 50000 nM.
`CCOC(=O)c1sc2cccc(Cl)c2c1COc1ccc(C(N)=O)cc1` [Example 7, Ethyl 3-((4-carbamoylphenoxy)methyl)-4-chlorobenzo[b]thiophene-2-carboxylate] was tested, and the EC50 (huSTING (HAQ); 24 h, top concentration 50 μM) was 705 nM, the ΔTm at 100 µM (human STING (HAQ)) was 0.26 °C and the EC50 (huSTING (WT) [1]) was 8940 nM.
For `NC(=O)c1ccc(OCc2c(C(=O)O)sc3cccc(Cl)c23)cc1` [Example 8, 3-((4-Carbamoylphenoxy)methyl)-4-chlorobenzo[b]thiophene-2-carboxylic acid], the “DSF huSTING (HAQ) ΔTm (° C.)” value (human STING (HAQ); 1 μM protein, compound at 100 μM) was 13.96 °C.
In the case of `CC(C)(C)C(=O)OCOC(=O)c1sc2cccc(Cl)c2c1COc1ccc(C(N)=O)cc1` [Example 74, (Pivaloyloxy)methyl 3-((4-carbamoylphenoxy)methyl)-4-chlorobenzo[b]thiophene-2-carboxylate], the EC50 (huSTING (HAQ); 24 h, top concentration 50 μM) is reported as 1050 nM, the ΔTm at 100 µM (huSTING (WT) [2]; 1 μM protein, compound at 100 μM, read-out: DSF huSTING (WT) ΔTm (° C.)) is reported as -4.22 °C and the EC50 (huSTING (WT) [1]) is reported as 2470 nM.
With `NC(=O)c1cc(F)c(OCc2c(C(=O)O)sc3cccc(Cl)c23)c(CO)c1` [Example 111, 3-((4-Carbamoyl-2-fluoro-6-(hydroxymethyl)phenoxy)methyl)-4-chlorobenzo[b]thiophene-2-carboxylic acid] the EC50 (huSTING (HAQ); [3]) was 16200 nM, the “DSF huSTING (WT) ΔTm (° C.)” value (huSTING (WT) [2]) was 10.88 °C and the EC50 (huSTING (WT) [1]) was 17200 nM.
With `CN(C)C(=O)COC(=O)c1sc2cccc(Cl)c2c1COc1c(F)cc(C(N)=O)cc1F` [Example 127, 2-(Dimethylamino)-2-oxoethyl 3-((4-carbamoyl-2,6-difluorophenoxy)methyl)-4-chlorobenzo[b]thiophene-2-carboxylate] the EC50 (huSTING (HAQ); [3]) was 26 nM, the “DSF huSTING (WT) ΔTm (° C.)” value (huSTING (WT) [2]) was −2.44 °C and the EC50 (huSTING (WT) [1]) was 229 nM.
With `NC(=O)CNC(=O)c1sc2cccc(Cl)c2c1COc1c(F)cc(C(N)=O)cc1F` [Example 148, N-(2-Amino-2-oxoethyl)-3-((4-carbamoyl-2,6-difluorophenoxy)methyl)-4-chlorobenzo[b]thiophene-2-carboxamide] the EC50 (huSTING (HAQ); [3]) was 4070 nM, the “DSF huSTING (WT) ΔTm (° C.)” value (huSTING (WT) [2]) was −0.37 °C and the EC50 (huSTING (WT) [1]) was greater than 40000 nM.
`CCOC(=O)c1sc2cccc(Cl)c2c1COc1ccc(C(N)=O)c(-c2cn[nH]c2)c1` [Example 151, Ethyl 3-((4-carbamoyl-3-(1H-pyrazol-4-yl)phenoxy)methyl)-4-chlorobenzo[b]thiophene-2-carboxylate] showed an EC50 (huSTING (HAQ); [3]) of 1820 nM and an EC50 (huSTING (WT) [1]) of 3460 nM.
Work on `CC(C)[C@H](N)C(=O)OCOC(=O)c1sc2cccc(Cl)c2c1COc1c(F)cc(C(N)=O)cc1F` [Example 152, ((L-Valyl)oxy)methyl 3-((4-carbamoyl-2,6-difluorophenoxy)methyl)-4-chlorobenzo[b]thiophene-2-carboxylate trifluoroacetate salt] yielded an EC50 (huSTING (HAQ); [3]) of 967 nM and an EC50 (huSTING (WT) [1]) of 53700 nM.
For `CCOC(=O)c1sc2c(C#N)ccc(Cl)c2c1COc1c(F)cc(C(N)=O)cc1F` [Example 153, Ethyl 3-((4-carbamoyl-2,6-difluorophenoxy)methyl)-4-chloro-7-cyanobenzo[b]thiophene-2-carboxylate], the EC50 (huSTING (HAQ); [3]) was 129 nM and the EC50 (huSTING (WT) [1]) was 207 nM.
Compound `COc1cccc2sc(C(=O)OC(C)C)c(COc3ccc(C(N)=O)cc3)c12` [Example 154, Isopropyl 3-((4-carbamoylphenoxy)methyl)-4-methoxybenzo[b]thiophene-2-carboxylate] has an EC50 (huSTING (HAQ); [3]) of 448 nM and an EC50 (huSTING (WT) [1]) of 2050 nM.
For `COc1cccc2sc(C(=O)OC3CCCC3)c(COc3ccc(C(N)=O)cc3)c12` [Example 155, Cyclopentyl 3-((4-carbamoylphenoxy)methyl)-4-methoxybenzo[b]thiophene-2-carboxylate], the EC50 (huSTING (HAQ); [3]) was 230 nM and the EC50 (huSTING (WT) [1]) was 3820 nM.
For `COc1cccc2sc(C(=O)OCc3ccccc3)c(COc3ccc(C(N)=O)cc3)c12` [Example 156, Benzyl 3-((4-carbamoylphenoxy)methyl)-4-methoxybenzo[b]thiophene-2-carboxylate], the EC50 (huSTING (HAQ); [3]) was 628 nM and the EC50 (huSTING (WT) [1]) was 4510 nM.
With `COc1cccc2sc(C(=O)OCCN3CCOCC3)c(COc3ccc(C(N)=O)cc3)c12` [Example 157, 2-Morpholinoethyl 3-((4-carbamoylphenoxy)methyl)-4-methoxybenzo[b]thiophene-2-carboxylate] the EC50 (huSTING (HAQ); [3]) was 373 nM and the EC50 (huSTING (WT) [1]) was 2030 nM.
In the case of `CC(=O)NCCOC(=O)c1sc2cccc(Cl)c2c1COc1c(F)cc(C(N)=O)cc1F` [Example 159, 2-Acetamidoethyl 3-((4-carbamoyl-2,6-difluorophenoxy)methyl)-4-chlorobenzo[b]thiophene-2-carboxylate], the EC50 (huSTING (HAQ); [3]) is reported as 44 nM, the “DSF huSTING (WT) ΔTm (° C.)” value (huSTING (WT) [2]) is reported as −1.02 °C and the EC50 (huSTING (WT) [1]) is reported as 325 nM.
`COC(=O)NCCOC(=O)c1sc2cccc(Cl)c2c1COc1c(F)cc(C(N)=O)cc1F` [Example 160, 2-((Methoxycarbonyl)amino)ethyl 3-((4-carbamoyl-2,6-difluorophenoxy)methyl)-4-chlorobenzo[b]thiophene-2-carboxylate] was tested, and the EC50 (huSTING (HAQ); [3]) was 35 nM, the “DSF huSTING (WT) ΔTm (° C.)” value (huSTING (WT) [2]) was −1.05 °C and the EC50 (huSTING (WT) [1]) was 298 nM.
With `COC(=O)N(C)CCOC(=O)c1sc2cccc(Cl)c2c1COc1c(F)cc(C(N)=O)cc1F` [Example 161, 2-((Methoxycarbonyl)(methyl)amino)ethyl 3-((4-carbamoyl-2,6-difluorophenoxy)methyl)-4-chlorobenzo[b]thiophene-2-carboxylate] the EC50 (huSTING (HAQ); [3]) was 62 nM, the “DSF huSTING (WT) ΔTm (° C.)” value (huSTING (WT) [2]) was −1.76 °C and the EC50 (huSTING (WT) [1]) was 669 nM.
With `COCCCOC(=O)c1sc2cccc(Cl)c2c1COc1c(F)cc(C(N)=O)cc1F` [Example 162, 3-Methoxypropyl 3-((4-carbamoyl-2,6-difluorophenoxy)methyl)-4-chlorobenzo[b]thiophene-2-carboxylate] the EC50 (huSTING (HAQ); [3]) was 41 nM, the “DSF huSTING (WT) ΔTm (° C.)” value (huSTING (WT) [2]) was −1.01 °C and the EC50 (huSTING (WT) [1]) was 302 nM.
`COC(=O)N1CCC(OC(=O)c2sc3cccc(Cl)c3c2COc2c(F)cc(C(N)=O)cc2F)CC1` [Example 163, Methyl 4-((3-((4-carbamoyl-2,6-difluorophenoxy)methyl)-4-chlorobenzo[b]thiophene-2-carbonyl)oxy)piperidine-1-carboxylate] gave an EC50 (huSTING (HAQ); [3]) of 62 nM and an EC50 (huSTING (WT) [1]) of 1560 nM.
Work on `CN1CC(OC(=O)c2sc3cccc(Cl)c3c2COc2c(F)cc(C(N)=O)cc2F)C1` [Example 164, 1-Methylazetidin-3-yl 3-((4-carbamoyl-2,6-difluorophenoxy)methyl)-4-chlorobenzo[b]thiophene-2-carboxylate] yielded an EC50 (huSTING (HAQ); [3]) of 27 nM and an EC50 (huSTING (WT) [1]) of 249 nM.
Work on `CCOC(=O)c1sc2cccc(OC)c2c1COc1c(F)cc(C(N)=O)cc1F` [Example 165, Ethyl 3-((4-carbamoyl-2,6-difluorophenoxy)methyl)-4-methoxybenzo[b]thiophene-2-carboxylate] yielded an EC50 (huSTING (HAQ); [3]) of 127 nM and an EC50 (huSTING (WT) [1]) of 6150 nM.
With `NC(=O)c1ccc(OCc2c(C(=O)NCc3ccccc3)sc3cccc(Br)c23)cc1` [Example 166, N-Benzyl-4-bromo-3-((4-carbamoylphenoxy)methyl)benzo[b]thiophene-2-carboxamide] the EC50 (huSTING (HAQ); [3]) was 9950 nM and the EC50 (huSTING (WT) [1]) was 28900 nM.
In the case of `NC(=O)c1ccc(OCc2c(C(=O)NCCc3ccccc3)sc3cccc(Br)c23)cc1` [Example 167, 4-Bromo-3-((4-carbamoylphenoxy)methyl)-N-phenethylbenzo[b]thiophene-2-carboxamide], the EC50 (huSTING (HAQ); [3]) is reported as 23200 nM, the “DSF huSTING (WT) ΔTm (° C.)” value (huSTING (WT) [2]) is reported as 2.51 °C and the EC50 (huSTING (WT) [1]) is reported as 25600 nM.
Compound `C=Cc1cc(OCc2c(C(=O)OCC)sc3cccc(Cl)c23)ccc1C(N)=O` [Example 168, Ethyl 3-((4-carbamoyl-3-vinylphenoxy)methyl)-4-chlorobenzo[b]thiophene-2-carboxylate] has an EC50 (huSTING (HAQ); [3]) of 7440 nM and an EC50 (huSTING (WT) [1]) greater than 40000 nM.
`CCOC(=O)c1sc2cncc(Cl)c2c1COc1c(F)cc(C(N)=O)cc1F` [Example 170, Ethyl 3-((4-carbamoyl-2,6-difluorophenoxy)methyl)-4-chlorothieno[2,3-c]pyridine-2-carboxylate] showed an EC50 (huSTING (HAQ); [3]) of 189 nM and an EC50 (huSTING (WT) [1]) of 450 nM.
In the case of `CC(C)(C)C(=O)OCOC(=O)c1sc2cccc(Cl)c2c1COc1c(F)cc(C(N)=O)cc1F` [Example 173, (Pivaloyloxy)methyl 3-((4-carbamoyl-2,6-difluorophenoxy)methyl)-4-chlorobenzo[b]thiophene-2-carboxylate], the EC50 (huSTING (HAQ); [3]) is reported as 55 nM and the EC50 (huSTING (WT) [1]) is reported as 208 nM.
`Cc1ccc2sc(C(=O)OCOC(=O)C(C)(C)C)c(COc3ccc(C(N)=O)cc3)c2c1Cl` [Example 174, (Pivaloyloxy)methyl 3-((4-carbamoylphenoxy)methyl)-4-chloro-5-methylbenzo[b]thiophene-2-carboxylate] gave an EC50 (huSTING (HAQ); [3]) of 4720 nM and an EC50 (huSTING (WT) [1]) of 25600 nM.
